Laboratory results reported in patent US20210260010A1, “COMPOSITIONS AND METHODS FOR THE REDUCTION OR TREATMENT OF INFLAMMATION” (AXCELLA HEALTH INC., priority 2018, published 2021).

Legend:
[1] = system: MCP1/CCL2; experiment: MCP1/CCL2 secretion by primary human hepatocytes exposed to free fatty acids and TNF-α (ELISA); assay type: cell-based; details: for MCP1 expression relative to Control- Donor 1, Mean: donor 1 hepatocytes; for MCP1 expression relative to Control- Donor 1, Mean / MCP1 expression relative to Control- Donor 2, Mean: FFA + TNF-α, baseline subtracted; for MCP1 expression relative to Control- Donor 2, Mean: donor 2 hepatocytes; for MCP1/CCL2 secretion (baseline subtracted): primary human hepatocytes from two healthy donors, FFA 250 uM + TNF-α 1 ng/ml
Protocol: Hepatocyte lipotoxicity appears to be a central driver of hepatic cellular injury via oxidative stress and endoplasmic reticulum (ER) stress. The ability of amino acids to influence steatosis (lipid accumulation) and inflammation in hepatocytes was assessed using human primary hepatocytes (Lonza, TRL).
Primary hepatocytes lot nos. from two healthy human donors were seeded on day 0 at density of 6e04 cells in 96 well optical microplates (Thermofisher) in hepatocyte plating media (William's E medium (Gibco) supplemented with 10% heat-inactivated FBS (Atlanta Bio), 2 mM Glutamax (Gibco) and 0.2% Primocin (InVivoGen) and incubated for 6 hours at 37° C., 5% CO2. After 6 hours, cells were washed twice and incubated overnight at 37° C., 5% CO2 with Hepatocytes defined medium (Corning) supplemented with 2 mM Glutamax (Gibco) and 1× Penicillin/Streptomycin. On day 1, cells were washed twice and incubated for 24 h in the hepatocyte culture media in the same conditions described above.
On day 2, cells were washed twice with DPBS 1× (Gibco) and maintained in amino acid-free WEM (US Biologicals) containing a defined custom amino acid concentration based on the mean physiological concentrations in blood. The values are published in the Human Metabolome Database (Wishart D S, Tzur D, Knox C, et al., HMDB: the Human Metabolome Database. Nucleic Acids Res. January 2007; 35(Database issue):D521-6. 17202168; which is hereby incorporated by reference in its entirety). This custom media is supplemented with 11 mM Glucose, 0.272 mM Sodium Pyruvate, and a dose curve of defined amino acid compositions (i.e., vehicle, LIVRQ+N-acetylcysteine, LIVRQ, RQ+N-acetylcysteine, N-acetylcysteine alone, LIV, or individually with L-Leucine, L-Isoleucine, L-Valine, L-Arginine, L-Glutamine, and L-Cysteine) at various ranges of concentrations. Cells were maintained in this defined media for 24 hours at 37° C., 5% CO2.
After pre-treatment, cells were exposed to free fatty acids (FFA) at 250 uM with a ratio of 2:1 (Oleate:Palmitate) supplemented with TNF-α (Thermofisher) at 1 ng/ml or vehicle. Cells were incubated with the FFAs mixture and the different amino acids combinations for 24 hours at 37° C., 5% CO2. After 24 hours incubation, media was removed for cytokine analysis and replaced by fresh media containing the same stimulus conditions and amino acid concentrations. Cells were incubated for an additional 48 hours for a total of 72 hours of FFA and TNFα stimulation.
Human CCL2 (MCP-1) was measured by ELISA (Human […] DuoSet ELISA, R&D Systems) at ⅕ or 1/10 dilution in 1× Reagent Diluent (Reagent Ancillary Kit 2, R&D Systems). Data were normalized to the specific per well cell density determined by nuclei count stained by Hoechst 3342 (Life technologies) in the fluorescence microscopy described below.

[2] = system: CCL18; experiment: IL-4 induced CCL18 secretion in primary human monocyte-derived macrophages (ELISA); assay type: cell-based; details: for Donor 1 CCL18 Measurements Mean / Donor 2 CCL18 Measurements Mean: relative to vehicle control; for CCL18 Measurements: Mean (fold change relative to vehicle control): IL-4 induced; for IL-4 induced CCL18 secretion (fold change relative to vehicle control): macrophages
Protocol: Lymphocytes were purified from unpurified buffy coats (Research Blood Components) using Lymphocyte Separation Medium (Corning). After centrifugation, the PBMC layer was extracted and rinsed several times using Dulbecco's phosphate-buffered saline (DPBS; Gibco). After straining PBMCs through a 70 uM cell strainer, cells were resuspended and counted using a Cellometer K2 automated cell counter.
CD14+ cells were selected using EasySep™ Human CD14 Positive Selection Kit II ([…] Technologies) according to manufacturer-supplied protocols. Following isolation CD14+ cells were seeded into 10 cm tissue culture plates and differentiated into macrophages using M-CSF (Peprotech).
On day 0, primary human PBMC derived macrophages were seeded in Dulbecco's Modified Eagle Medium (DMEM) (Gibco) supplemented with penicillin-streptomycin (Hyclone) and 10% heat inactivated fetal bovine serum (HI-FBS) (Atlanta Bio) into 96-well microplates (ThermoFisher) and incubated overnight at 37° C., 5% CO2. On day 1, cells were washed once with DPBS and then treated with: • a. Amino acid free DMEM (US Biologicals) containing a defined custom amino acid concentration based on the mean physiological concentrations in blood based on values published in the Human Metabolome Database (HMDB), with 6 mM glucose, 1 mM sodium pyruvate, 10 mM HEPES, penicillin-streptomycin; or • b. The same medium described above with one amino acid or amino acid combination at various concentrations
On day 2, cells were treated with the same mediums described above supplemented with recombinant human interleukin-4 (IL-4; Peprotech). Control wells were treated with tofacitinib (Tocris) and IL-4, PBS with IL-4, or phosphate buffered saline (PBS) alone.
On day 3, the supernatant was collected and immediately frozen in −80° C. freezer. Cells were washed once with DPBS and viability was assessed using the WST-8 Cell Proliferation Cytotoxicity Assay (Dojindo) according to manufacturer-supplied protocol. Following the assay, cells were washed twice with PBS and fixed with 4% paraformaldehyde. Protein levels in supernatant samples were analyzed by ELISA for CCL18 using commercially available kits (R&D Systems) according to manufacturer-supplied protocols.

[3] = Conc. 109 μM (baseline comparator)
[4] = Conc. 749 μM (baseline comparator)
[5] = Conc. 153 μM (baseline comparator)

Structure (SMILES): N=C(N)NCCC[C@H](N)C(=O)O [Arginine, L-Arginine]
- MCP1 expression relative to Control- Donor 1, Mean [1, 3]: 2.37E−15
- MCP1 expression relative to Control- Donor 2, Mean [1, 3]: −4.7E−15
- MCP1 expression relative to Control- Donor 1, Mean ([1]; Conc. 1088 μM): 5.114
- MCP1 expression relative to Control- Donor 2, Mean ([1]; Conc. 1088 μM): 24.95
- MCP1 expression relative to Control- Donor 1, Mean ([1]; Conc. 2720 μM): 6.527
- MCP1 expression relative to Control- Donor 2, Mean ([1]; Conc. 2720 μM): 24.06
- MCP1 expression relative to Control- Donor 1, Mean ([1]; Conc. 5440 μM): 10.9386
- MCP1 expression relative to Control- Donor 2, Mean ([1]; Conc. 5440 μM): 8.494
- MCP1/CCL2 secretion (baseline subtracted) [1]: increased
- Donor 1 CCL18 Measurements Mean ([2]; Donor 1, Conc. 109 μM): 1.131 fold change
- Donor 1 CCL18 Measurements Mean ([2]; Donor 1, Conc. 1088 μM): 1.068 fold change
- Donor 1 CCL18 Measurements Mean ([2]; Donor 1, Conc. 2720 μM): 1.121 fold change
- Donor 1 CCL18 Measurements Mean ([2]; Donor 1, Conc. 5440 μM): 1.277 fold change
- Donor 2 CCL18 Measurements Mean ([2]; Donor 2, Conc. 109 μM): 0.9634 fold change
- Donor 2 CCL18 Measurements Mean ([2]; Donor 2, Conc. 1088 μM): 0.9846 fold change
- Donor 2 CCL18 Measurements Mean ([2]; Donor 2, Conc. 2720 μM): 1.031 fold change
- Donor 2 CCL18 Measurements Mean ([2]; Donor 2, Conc. 5440 μM): 1.089 fold change
- CCL18 Measurements: Mean (fold change relative to vehicle control) ([2]; Donor 3, Conc. 109 μM): 1.138 fold change
- CCL18 Measurements: Mean (fold change relative to vehicle control) ([2]; Donor 3, Conc. 1088 μM): 0.9131 fold change
- CCL18 Measurements: Mean (fold change relative to vehicle control) ([2]; Donor 3, Conc. 2720 μM): 1.208 fold change
- CCL18 Measurements: Mean (fold change relative to vehicle control) ([2]; Donor 3, Conc. 5440 μM): 1.206 fold change

Structure (SMILES): NC(=O)CC[C@H](N)C(=O)O [Glutamine, L-Glutamine]
- MCP1 expression relative to Control- Donor 1, Mean [1, 4]: 0
- MCP1 expression relative to Control- Donor 2, Mean [1, 4]: 2.84E−14
- MCP1 expression relative to Control- Donor 1, Mean ([1]; Conc. 3747 μM): −0.8981
- MCP1 expression relative to Control- Donor 2, Mean ([1]; Conc. 3747 μM): −45.0574
- MCP1 expression relative to Control- Donor 1, Mean ([1]; Conc. 11242 μM): −9.001
- MCP1 expression relative to Control- Donor 2, Mean ([1]; Conc. 11242 μM): −90.6558
- MCP1 expression relative to Control- Donor 1, Mean ([1]; Conc. 22484 μM): −21.8392
- MCP1 expression relative to Control- Donor 2, Mean ([1]; Conc. 22484 μM): −138.873
- MCP1/CCL2 secretion (baseline subtracted) [1]: significantly decrease
- Donor 1 CCL18 Measurements Mean ([2]; Donor 1, Conc. 749 μM): 1.382 fold change
- Donor 1 CCL18 Measurements Mean ([2]; Donor 1, Conc. 3747 μM): 1.492 fold change
- Donor 1 CCL18 Measurements Mean ([2]; Donor 1, Conc. 11242 μM): 1.645 fold change
- Donor 1 CCL18 Measurements Mean ([2]; Donor 1, Conc. 22484 μM): 1.992 fold change
- Donor 2 CCL18 Measurements Mean ([2]; Donor 2, Conc. 749 μM): 1.4 fold change
- Donor 2 CCL18 Measurements Mean ([2]; Donor 2, Conc. 3747 μM): 1.559 fold change
- Donor 2 CCL18 Measurements Mean ([2]; Donor 2, Conc. 11242 μM): 1.857 fold change
- Donor 2 CCL18 Measurements Mean ([2]; Donor 2, Conc. 22484 μM): 2.219 fold change
- CCL18 Measurements: Mean (fold change relative to vehicle control) ([2]; Donor 3, Conc. 749 μM): 1.56 fold change
- CCL18 Measurements: Mean (fold change relative to vehicle control) ([2]; Donor 3, Conc. 3747 μM): 1.606 fold change
- CCL18 Measurements: Mean (fold change relative to vehicle control) ([2]; Donor 3, Conc. 11242 μM): 2.428 fold change
- CCL18 Measurements: Mean (fold change relative to vehicle control) ([2]; Donor 3, Conc. 22484 μM): 2.33 fold change
- IL-4 induced CCL18 secretion (fold change relative to vehicle control) ([2]; Donor 1): significantly increased
- IL-4 induced CCL18 secretion (fold change relative to vehicle control) ([2]; Donor 2): significantly increased
- IL-4 induced CCL18 secretion (fold change relative to vehicle control) ([2]; Donor 3): significantly increased

Structure (SMILES): CC(C)C[C@H](N)C(=O)O [Leucine, L-Leucine]
- MCP1 expression relative to Control- Donor 1, Mean [1, 5]: 5.92E−16
- MCP1 expression relative to Control- Donor 2, Mean [1, 5]: −4.7E−15
- MCP1 expression relative to Control- Donor 1, Mean ([1]; Conc. 3054 μM): 3.34
- MCP1 expression relative to Control- Donor 2, Mean ([1]; Conc. 3054 μM): 16.11
- MCP1 expression relative to Control- Donor 1, Mean ([1]; Conc. 7635 μM): 1.896
- MCP1 expression relative to Control- Donor 2, Mean ([1]; Conc. 7635 μM): −2.988
- MCP1 expression relative to Control- Donor 1, Mean ([1]; Conc. 15270 μM): −1.368
- MCP1 expression relative to Control- Donor 2, Mean ([1]; Conc. 15270 μM): −26.6436
- MCP1/CCL2 secretion (baseline subtracted) [1]: did not have an effect
- Donor 1 CCL18 Measurements Mean ([2]; Donor 1, Conc. 153 μM): 1.124 fold change
- Donor 1 CCL18 Measurements Mean ([2]; Donor 1, Conc. 3054 μM): 1.302 fold change
- Donor 1 CCL18 Measurements Mean ([2]; Donor 1, Conc. 7635 μM): 1.247 fold change
- Donor 1 CCL18 Measurements Mean ([2]; Donor 1, Conc. 15270 μM): 1.227 fold change
- Donor 2 CCL18 Measurements Mean ([2]; Donor 2, Conc. 153 μM): 1.488 fold change
- Donor 2 CCL18 Measurements Mean ([2]; Donor 2, Conc. 3054 μM): 1.646 fold change
- Donor 2 CCL18 Measurements Mean ([2]; Donor 2, Conc. 7635 μM): 1.825 fold change
- Donor 2 CCL18 Measurements Mean ([2]; Donor 2, Conc. 15270 μM): 1.712 fold change
- CCL18 Measurements: Mean (fold change relative to vehicle control) ([2]; Donor 3, Conc. 153 μM): 1.242 fold change
- CCL18 Measurements: Mean (fold change relative to vehicle control) ([2]; Donor 3, Conc. 3054 μM): 1.502 fold change
- CCL18 Measurements: Mean (fold change relative to vehicle control) ([2]; Donor 3, Conc. 7635 μM): 1.558 fold change
- CCL18 Measurements: Mean (fold change relative to vehicle control) ([2]; Donor 3, Conc. 15270 μM): 1.193 fold change
- IL-4 induced CCL18 secretion (fold change relative to vehicle control) ([2]; Donor 2): significantly increased
- IL-4 induced CCL18 secretion (fold change relative to vehicle control) ([2]; Donor 3): significantly increased
